According to EP0582261A1, “Cephalosporin compounds and processes for the preparation thereof” (LUCKY LTD., priority 1992, dated 1994):

Experiments:
Assay in all cases: MIC, two-fold dilution method on Müller-Hinton agar
Assay type in all cases: cell-based
Conditions in all cases: incubated at 37°C for 20 hours
[1] = system: Acinetobacter calcoaceticus ATCC 15473
Protocol: (§1) The same procedures as described in Example 163 were repeated using 7-amino-1,8-dimethyl[1,3]imidazo[1,2-c] pyrimidine-5-thione prepared in Preparation Example 36 in place of 7-amino-1-methyl[1,3]imidazo[1,2-c]pyrimidine-5-thione to yield 190mg and 180mg of the title compound(a) and (b), respectively, as white solids.
(§2) These MIC values were taken by employing a two-fold dilution method: that is, two-fold serial dilutions of each of the test compounds were made and dispersed in a Müller-Hinton agar medium; 2µl of the standard test strain which had the 10⁷ CFU(Colony Forming Unit) per ml was inoculated on the medium; and these were incubated at 37°C for 20 hours.

[2] = system: Bacillus cereus ATCC 11778
Protocol: as §1, §2

[3] = system: Bacillus megaterium ATCC 9885
Protocol: as §1, §2

[4] = system: Citrobacter freundii ATCC 8090
Protocol: as §1, §2

[5] = system: Enterobacter aerogenes ATCC 29751
Protocol: as §1, §2

[6] = system: Enterobacter cloacae ATCC 27508
Protocol: as §1, §2

[7] = system: Escherichia coli ATCC 10536
Protocol: as §1, §2

[8] = system: Escherichia coli ATCC 25922
Protocol: as §1, §2

[9] = system: Klebsiella pneumoniae ATCC 10031
Protocol: as §1, §2

[10] = system: Micrococcus luteus ATCC 9341
Protocol: as §1, §2

[11] = system: Morganella morganii ATCC 8076h
Protocol: as §1, §2

[12] = system: Proteus mirabilis ATCC 25933
Protocol: as §1, §2

[13] = system: Proteus vulgaris ATCC 6059
Protocol: as §1, §2

[14] = system: Providencia rettgeri ATCC 9250
Protocol: as §1, §2

[15] = system: Pseudomonas aeruginosa ATCC 10145
Protocol: as §1, §2

[16] = system: Pseudomonas aeruginosa ATCC 25619
Protocol: as §1, §2

[17] = system: Pseudomonas aeruginosa ATCC 27853
Protocol: as §1, §2

[18] = system: Salmonella typhimurium ATCC 14028
Protocol: as §1, §2

[19] = system: Serratia marcescens ATCC 27117
Protocol: as §1, §2

[20] = system: Shigella flexneri ATCC 11836
Protocol: as §1, §2

[21] = system: Shigella sonnei ATCC 11060
Protocol: as §1, §2

[22] = system: Staphylococcus aureus ATCC 10537
Protocol: as §1, §2

[23] = system: Staphylococcus aureus ATCC 6538p
Protocol: as §1, §2

[24] = system: Staphylococcus epidermidis ATCC 12228
Protocol: as §1, §2

[25] = system: Streptococcus faecalis ATCC 29212
Protocol: as §1, §2

Substance	MIC values against the standard strains [1]	MIC values against the standard strains [2]	MIC values against the standard strains [3]	MIC values against the standard strains [4]	MIC values against the standard strains [5]	MIC values against the standard strains [6]	MIC values against the standard strains [7]	MIC values against the standard strains [8]	MIC values against the standard strains [9]	MIC values against the standard strains [10]	MIC values against the standard strains [11]	MIC values against the standard strains [12]	MIC values against the standard strains [13]	MIC values against the standard strains [14]	MIC values against the standard strains [15]	MIC values against the standard strains [16]	MIC values against the standard strains [17]	MIC values against the standard strains [18]	MIC values against the standard strains [19]	MIC values against the standard strains [20]	other results
7-[(Z)-2-(2-aminothiazol-4-yl)-2-((R)-1-carboxyprop-1-oxyimino)acetamido]-3-(7-amino-1-methyl [1,2,4]triazolo[1,5-c]pyrimidinium-5-yl)thiomethyl-3-cephem-4-carboxylate [Exp. 86]	2 µg/mL	16 µg/mL	0.031 µg/mL	0.13 µg/mL	0.25 µg/mL	≤0.008 µg/mL	0.13 µg/mL	0.063 µg/mL	≤0.008 µg/mL	≤0.008 µg/mL	≤0.008 µg/mL	0.13 µg/mL	0.13 µg/mL	≤0.008 µg/mL	2 µg/mL	1 µg/mL	1 µg/mL	0.25 µg/mL	0.25 µg/mL	0.031 µg/mL	MIC values against the standard strains [21]: 0.063 µg/mL; MIC values against the standard strains [22]: 0.13 µg/mL; MIC values against the standard strains [23]: 0.13 µg/mL; MIC values against the standard strains [24]: 0.25 µg/mL; MIC values against the standard strains [25]: 16 µg/mL
7-[(Z)-2-(2-aminothiazol-4-yl)-2-(2-carboxyprop-2-oxyimino)acetamido]-3-(7-amino-1-methyl [1,2,4]triazolo[1,5-c]pyrimidinium-5-yl)thiomethyl-3-cephem-4-carboxylate [Exp. 1]	4 µg/mL	128 µg/mL	0.25 µg/mL	0.13 µg/mL	1 µg/mL	0.016 µg/mL	0.063 µg/mL	0.13 µg/mL	0.063 µg/mL	0.13 µg/mL	≤0.008 µg/mL	0.13 µg/mL	0.063 µg/mL	≤0.008 µg/mL	2 µg/mL	1 µg/mL	1 µg/mL	0.25 µg/mL	0.25 µg/mL	0.031 µg/mL	MIC values against the standard strains [21]: 0.13 µg/mL; MIC values against the standard strains [22]: 4 µg/mL; MIC values against the standard strains [23]: 4 µg/mL; MIC values against the standard strains [24]: 1 µg/mL; MIC values against the standard strains [25]: >128 µg/mL
